The record followed here is ChEMBL document CHEMBL3272303.

Active and inactive are the calls of the source. The rule behind the calls is not given here.

In assay [1] the target is Beta-2 adrenergic receptor (Cavia porcellus) (UniProt Q8K4Z4). Particulars: Trachea.
Assay [2] has as its target Beta-1 adrenergic receptor (Cavia porcellus) (UniProt B0FL73). In words: Partial agonist activity at beta 1 adrenergic receptor in guinea pig right atria assessed as chronotropic response measured over 3 mins.
Assay [3] deals with Beta-2 adrenergic receptor (Cavia porcellus) (UniProt Q8K4Z4). Kind of assay: Antagonist activity at beta 2 adrenergic receptor in guinea pig trachea assessed as inhibition of trimetoquinol-induced tracheal relaxation at 10^-4 M preincubated for 30 mins followed by trimetoquinol addition measured within 1 hr.
For assay [4] the target is unchanged. Kind of assay: Agonist activity at beta 2 adrenergic receptor in guinea pig trachea assessed as tracheal relaxation at 10^-9 to 10^-4 M.
Assay [5] has as its target Beta-2 adrenergic receptor (Rattus norvegicus) (UniProt P10608). Kind of assay: Agonist activity at beta 2 adrenergic receptor in Sprague-Dawley rat adipocytes assessed as lipolysis at 10^-9 to 10^-4 M after 1 hr. Format: cell-based.
The target in assay [6] is Beta-1 adrenergic receptor (Cavia porcellus) (UniProt B0FL73). Kind of assay: Antagonist activity at beta 1 adrenergic receptor in guinea pig right atria assessed as inhibition of trimetoquinol-induced chronotropic response at 10^-4 M preincubated for 30 mins followed by trimetoquinol addition measured within 45 mins relative to control.
For assay [7] the target is unchanged. Kind of assay: Antagonist activity at beta 1 adrenergic receptor in guinea pig right atria assessed as inhibition of 10^-3 M isoproterenol-induced chronotropic response at 10^-4 M.
Assay [8] has the same target. In words: Competitive antagonist activity at beta 1 adrenergic receptor in guinea pig right atria assessed as inhibition of trimetoquinol-induced chronotropic response at 10^-6 to 10^-5 M preincubated for 30 mins followed by trimetoquinol addition measured within 1 hr.
The target is the same in assay [9]. In words: Antagonist activity at beta 1 adrenergic receptor in guinea pig right atria assessed as inhibition of 10^-3 M trimetoquinol-induced chronotropic response at 10^-4 M preincubated for 30 mins followed by trimetoquinol addition measured within 1 hr.

Sequence of Beta-1 adrenergic receptor (Cavia porcellus) (B0FL73 1-467): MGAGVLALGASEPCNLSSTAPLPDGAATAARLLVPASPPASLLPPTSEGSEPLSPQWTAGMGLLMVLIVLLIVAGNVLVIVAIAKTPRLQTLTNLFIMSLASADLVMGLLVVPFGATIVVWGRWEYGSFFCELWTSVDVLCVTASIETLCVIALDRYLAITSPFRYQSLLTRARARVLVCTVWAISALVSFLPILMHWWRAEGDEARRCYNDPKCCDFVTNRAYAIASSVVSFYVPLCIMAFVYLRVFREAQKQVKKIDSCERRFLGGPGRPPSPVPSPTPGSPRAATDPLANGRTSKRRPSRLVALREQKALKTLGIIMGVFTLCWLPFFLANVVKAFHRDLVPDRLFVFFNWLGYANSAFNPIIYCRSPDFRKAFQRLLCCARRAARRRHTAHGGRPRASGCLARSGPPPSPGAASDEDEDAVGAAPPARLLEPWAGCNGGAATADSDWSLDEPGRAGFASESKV
Sequence of Beta-2 adrenergic receptor (Cavia porcellus) (Q8K4Z4 whole entry, looked up): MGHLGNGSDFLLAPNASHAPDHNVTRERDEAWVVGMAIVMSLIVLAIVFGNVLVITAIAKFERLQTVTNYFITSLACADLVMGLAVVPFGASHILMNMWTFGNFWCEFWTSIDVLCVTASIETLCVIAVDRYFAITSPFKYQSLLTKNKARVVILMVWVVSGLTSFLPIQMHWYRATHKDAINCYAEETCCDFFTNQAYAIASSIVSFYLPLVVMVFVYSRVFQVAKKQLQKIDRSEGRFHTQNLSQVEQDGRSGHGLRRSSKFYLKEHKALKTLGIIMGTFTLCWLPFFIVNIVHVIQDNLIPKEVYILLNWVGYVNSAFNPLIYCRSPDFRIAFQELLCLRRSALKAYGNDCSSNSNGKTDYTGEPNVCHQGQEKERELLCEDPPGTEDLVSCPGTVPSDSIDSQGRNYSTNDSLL
Sequence of Beta-2 adrenergic receptor (Rattus norvegicus) (P10608 whole entry, looked up): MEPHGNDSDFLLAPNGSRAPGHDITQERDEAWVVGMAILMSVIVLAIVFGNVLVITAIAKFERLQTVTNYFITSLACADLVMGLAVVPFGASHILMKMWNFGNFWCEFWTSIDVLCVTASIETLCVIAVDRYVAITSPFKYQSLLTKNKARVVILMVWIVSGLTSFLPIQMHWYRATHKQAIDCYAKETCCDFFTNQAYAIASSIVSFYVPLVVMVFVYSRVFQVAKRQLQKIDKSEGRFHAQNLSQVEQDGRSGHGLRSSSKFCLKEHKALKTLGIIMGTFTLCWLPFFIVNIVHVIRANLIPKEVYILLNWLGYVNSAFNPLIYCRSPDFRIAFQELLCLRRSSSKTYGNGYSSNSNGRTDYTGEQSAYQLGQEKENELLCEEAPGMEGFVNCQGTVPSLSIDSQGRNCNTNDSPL

For the compound `COc1cc(C[C@@H]2NCCc3cc(O)c(O)cc32)cc(OC)c1OC`, the pD2 in [1] was found to be 7.
On to `COc1cc(CC2(C)NCCc3cc(O)c(O)cc32)cc(OC)c1OC` (configuration not stated), for which the result in assay [2] was Active. Also, the inhibition result in assay [3] was “inactive”. Also, the outcome in assay [4] and in assay [5] was inactive.
Turning to `COc1cc(CC2(Cc3ccccc3)NCCc3cc(O)c(O)cc32)cc(OC)c1OC` (configuration not stated), the inhibition in [6] is less than 10%. Moreover, in assay [3], the inhibition result is “inactive”. In addition, the inhibition result in assay [7], in assay [8] and in [9] was “Active” in each case. Besides, the outcome in assay [4] and in [5] was inactive.
